The source of these data is patent publication US10118916B2, “Modulators of cystic fibrosis transmembrane conductance regulator protein” (AbbVie S.à.r.l., priority 2016, dated 2018).

The assay has as its target T1, F508delCFTR (Homo sapiens, UniProt P13569, DEL508-508).
T1 construct: expressed in transfected cells; host or cells: CFBE41o- (human lung derived epithelial cell line), doxycycline-inducible
In words: Cell Surface Expression-Horse Radish Peroxidase (CSE-HRP) assay. Format: cell-based. Particulars: CFBE41o-F508delCFTR-HRP cells; for EC50: F508delCFTR cell surface expression, luminescence, 18-24 hours at 33° C., highest concentration 20 μM; for Maximum % activity: maximum at any tested concentration, normalized to on-plate positive control (3 μM). From the text: Cell Surface Expression-Horse Radish Peroxidase (CSE-HRP) Assay:
A cellular assay for measuring the F508delCFTR cell surface expression after correction with test compounds was developed in human lung derived epithelial cell line (CFBE41o-) (Veit G et al, (2012) Mol Biol Cell. 23(21): 4188-4202). This was achieved by expressing the F508delCFTR mutation along with a horseradish peroxidase (HRP) in the fourth exofacial loop and then measuring the HRP activity using luminescence readout from these cells, CFBE41o-F508delCFTR-HRP, that were incubated overnight with the test corrector compounds. Briefly, for this primary assay, the CFBE41o-F508delCFTR-HRP cells were plated in 384-well plates (Greiner Bio-one; Cat 781080) at 4,000 cells/well along with 0.5 μg/mL doxycycline to induce the F508delCFTR-HRP expression and further incubated at 37° C., 5% CO2 for 72 hours. The test compounds were then added at the required concentrations and further incubated for 18-24 hours at 33° C. The highest concentration tested was 20 μM with an 8-point concentration response curve using a 3-fold dilution. Three replicate plates were run to determine one EC50. All plates contained negative controls (dimethyl sulfoxide, DMSO) and positive controls (3 μM of 3-[(2R,4R)-4-({[1-(2,2-difluoro-1,3-benzodioxol-5-yl)cyclopropyl]carbonyl}amino)-7-methoxy-3,4-dihydro-2H-chromen-2-yl]benzoic acid) as well as on-plate concentration response of the positive control. Post incubation, the plates were washed 5× times with Dulbecco's phosphate buffered saline (DPBS), followed by the addition of the HRP substrate, luminol (50 μL), and measuring the HRP activity using luminescence readout on EnVision® Multilabel Plate Reader (Perkin Elmer; product number 2104-0010). The raw counts from the experiment are analyzed using Accelrys® Assay Explorer v3.3.
Z′ greater than 0.5 was used as passing quality control criteria for the plates.
The Z′ is defined as: 1−[3*SDPositive Control+3*SDNegative Control/Absolute(MeanPositive Control−MeanNegative Control)] wherein “SD” is standard deviation.
The % activity measured at each of the 8 test concentrations of the test compound was normalized to the on-plate positive control using the following formula: % activity=[(test compound response−DMSO response)/(positive control response−DMSO response)]*100
The maximum % activity achieved for the test compound at any tested concentration is presented in Table 1 along with the EC50 calculated using the following general sigmoidal curve with variable Hill slope equation (described as Model 42 in the Accelrys® Assay Explorer v3.3 software): y=(a−d)/(1+(x/c)^b)+d
General sigmoidal curve with concentration, response, top, bottom, EC50 and Hill slope.
This model describes a sigmoidal curve with an adjustable baseline, a. The equation can be used to fit curves where response is either increasing or decreasing with respect to the independent variable, “x”. • “x” is a concentration of drug under test. • “y” is the response. • “a” is the maximum response, and “d” is the minimum response • “c” is the inflection point (EC50) for the curve. That is, “y” is halfway between the lower and upper asymptotes when x=c. • “b” is the slope-factor or Hill coefficient. The sign of b is positive when the response increases with increasing dose and is negative when the response decreases with increasing dose (inhibition).

T1 sequence (P13569 with tags, fused parts or gaps DEL508-508): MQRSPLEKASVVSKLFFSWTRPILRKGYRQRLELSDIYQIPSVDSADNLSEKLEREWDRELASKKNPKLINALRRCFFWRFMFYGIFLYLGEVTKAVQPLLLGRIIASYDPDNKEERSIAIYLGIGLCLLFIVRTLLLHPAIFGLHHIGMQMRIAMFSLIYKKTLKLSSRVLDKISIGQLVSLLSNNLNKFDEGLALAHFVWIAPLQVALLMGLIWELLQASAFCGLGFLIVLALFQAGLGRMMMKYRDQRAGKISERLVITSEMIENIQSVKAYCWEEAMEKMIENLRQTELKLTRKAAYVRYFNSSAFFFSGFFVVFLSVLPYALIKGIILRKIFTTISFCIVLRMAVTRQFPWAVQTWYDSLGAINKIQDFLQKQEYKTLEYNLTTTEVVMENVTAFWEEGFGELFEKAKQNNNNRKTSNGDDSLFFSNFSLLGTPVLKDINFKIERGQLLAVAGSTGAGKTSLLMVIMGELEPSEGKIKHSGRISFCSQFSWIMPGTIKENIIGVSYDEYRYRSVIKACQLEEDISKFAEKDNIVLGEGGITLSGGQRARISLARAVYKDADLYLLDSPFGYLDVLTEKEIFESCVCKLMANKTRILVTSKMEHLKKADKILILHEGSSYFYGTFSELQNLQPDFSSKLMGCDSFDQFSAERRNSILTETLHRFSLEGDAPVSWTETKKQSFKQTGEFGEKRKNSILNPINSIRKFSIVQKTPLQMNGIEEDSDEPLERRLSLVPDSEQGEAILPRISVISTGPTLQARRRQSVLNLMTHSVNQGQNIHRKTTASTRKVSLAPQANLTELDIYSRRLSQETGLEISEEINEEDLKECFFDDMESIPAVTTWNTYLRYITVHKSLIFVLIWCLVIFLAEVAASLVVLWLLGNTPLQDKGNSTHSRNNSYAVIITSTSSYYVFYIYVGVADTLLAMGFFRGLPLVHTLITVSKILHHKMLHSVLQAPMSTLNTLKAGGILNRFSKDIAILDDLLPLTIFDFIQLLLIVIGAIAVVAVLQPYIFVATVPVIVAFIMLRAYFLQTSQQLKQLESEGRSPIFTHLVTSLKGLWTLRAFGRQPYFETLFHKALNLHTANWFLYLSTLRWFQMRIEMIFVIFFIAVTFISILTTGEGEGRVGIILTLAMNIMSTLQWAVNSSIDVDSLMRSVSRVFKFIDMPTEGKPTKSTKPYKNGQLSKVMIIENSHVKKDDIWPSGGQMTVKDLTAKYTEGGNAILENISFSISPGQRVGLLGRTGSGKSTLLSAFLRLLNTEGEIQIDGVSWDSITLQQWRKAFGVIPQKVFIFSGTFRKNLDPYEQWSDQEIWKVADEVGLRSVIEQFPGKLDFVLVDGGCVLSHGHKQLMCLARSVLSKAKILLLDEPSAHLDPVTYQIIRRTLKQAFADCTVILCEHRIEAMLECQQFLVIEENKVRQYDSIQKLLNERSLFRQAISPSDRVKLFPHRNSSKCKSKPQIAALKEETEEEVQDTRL

For “3-[(2R,4R)-4-{[(2R)-6-chloro-2-methyl-3,4-dihydro-2H-1-benzopyran-2-carbonyl]amino}-7-methoxy-3,4-dihydro-2H-1-benzopyran-2-yl]benzoic acid [Example 65]”, the EC50 came to 2140 nM and the Maximum % activity is given as 27.0%.
In the same order, the values of “3-{(2R,4R)-4-[2-(2H-1,3-benzodioxol-5-yl)-2-methylpropanamido]-7-methoxy-3,4-dihydro-2H-1-benzopyran-2-yl}benzoic acid [Example 38]” are 160 nM and 34.4%.
In the case of “4-[(2R,4R)-4-(2-ethyl-2-phenylbutanamido)-7-methoxy-3,4-dihydro-2H-1-benzopyran-2-yl]benzoic acid [Example 79]”, the EC50 is over 20000 nM and the Maximum % activity was −0.3%.
Take `COc1ccc2c(c1)O[C@@H](c1ccc(C(=O)O)cc1)C[C@H]2NC(=O)C1(c2ccccc2)CC1(F)F` (mixture of isomers) [Example 105, 4-{(2R,4R)-4-[(2,2-difluoro-1-phenylcyclopropane-1-carbonyl)amino]-7-methoxy-3,4-dihydro-2H-1-benzopyran-2-yl}benzoic acid]: the EC50 amounted to 1100 nM and the Maximum % activity worked out at 32.0%.
The like results for `COC(=O)c1cccc([C@H]2C[C@@H](NC(=O)C3(C)CCc4cc(C)ccc43)c3ccc(OC)cc3O2)c1` (mixture of isomers) [Example 123, methyl 3-{(2R,4R)-4-[(1,5-dimethyl-2,3-dihydro-1H-indene-1-carbonyl)amino]-7-methoxy-3,4-dihydro-2H-1-benzopyran-2-yl}benzoate] were, in that order, 450 nM and 80.8%.
The like results for `COc1ccc2c(c1)O[C@@H](c1ccc(C(=O)O)cc1)C[C@H]2NC(=O)[C@@]1(C)CCc2cc(C)ccc21` (single isomer, unassigned) [Example 9] were, in that order, 180 nM and 95.5%.
Regarding `COC(=O)[C@H]1CC[C@@H]([C@H]2C[C@@H](NC(=O)C3(c4ccc5c(c4)OC(F)(F)O5)CC3)c3ccc(OC(F)F)cc3O2)CC1` (single isomer, unassigned) [Example 14D], the EC50 is 630 nM and the Maximum % activity is listed as 121.5%.
On to `COC(=O)[C@H]1CC[C@H]([C@H]2C[C@@H](NC(=O)C3(c4ccc5c(c4)OC(F)(F)O5)CC3)c3ccc(OC(F)F)cc3O2)CC1` (single isomer, unassigned) [Example 14E], for which the response was half-maximal at 200 nM (EC50) and the Maximum % activity was determined as 125.0%.
As for `COc1ccc2c(c1)O[C@@H](c1cccc(C(=O)O)c1)C[C@H]2NC(=O)[C@]1(C)CCc2cc(C)ccc21` (single isomer, unassigned) [Example 125], the EC50 was determined as 440 nM and the Maximum % activity came out at 70.7%.
On to `COc1ccc2c(c1)O[C@@H](c1ccc(C(=O)O)cc1)C[C@H]2NC(=O)[C@]1(C)CCc2cc(C)ccc21` (single isomer, unassigned) [Example 126], for which the EC50 is 650 nM and the Maximum % activity was determined as 72.1%.
In the case of `COc1ccc2c(c1)O[C@@H](c1ccc(C(=O)O)cc1)C[C@H]2NC(=O)C(C)(C)c1ccc2c(c1)OC(F)(F)O2` [Example 1, 4-{(2R,4R)-4-[2-(2,2-difluoro-2H-1,3-benzodioxol-5-yl)-2-methylpropanamido]-7-methoxy-3,4-dihydro-2H-1-benzopyran-2-yl}benzoic acid], it took 550 nM to reach a half-maximal effect (EC50) and the Maximum % activity is on record as 110.0%.
In the same order, the values of `COc1ccc2c(c1)O[C@@H](c1ccc(C(=O)O)cc1)C[C@H]2NC(=O)C1(c2ccc(Cl)c(Cl)c2)CC1` [Example 2, 4-[(2R,4R)-4-{[1-(3,4-dichlorophenyl)cyclopropane-1-carbonyl]amino}-7-methoxy-3,4-dihydro-2H-1-benzopyran-2-yl]benzoic acid] are 150 nM and 95.0%.
The like results for `COc1ccc2c(c1)O[C@@H](c1ccc(C(=O)O)cc1)C[C@H]2NC(=O)C1(c2ccc(OC(F)(F)F)cc2)CC1` [Example 3, 4-[(2R,4R)-7-methoxy-4-({1-[4-(trifluoromethoxy)phenyl]cyclopropane-1-carbonyl}amino)-3,4-dihydro-2H-1-benzopyran-2-yl]benzoic acid] were, in that order, 1940 nM and 106.0%.
For `COc1ccc2c(c1)O[C@@H](c1ccc(C(=O)O)cc1)C[C@H]2NC(=O)C1(c2ccc(Br)cc2)CC1` [Example 4, 4-[(2R,4R)-4-{[1-(4-bromophenyl)cyclopropane-1-carbonyl]amino}-7-methoxy-3,4-dihydro-2H-1-benzopyran-2-yl]benzoic acid], the EC50 was determined as 260 nM and the Maximum % activity came out at 94.2%.
As to `COc1ccc2c(c1)O[C@@H](c1ccc(C(=O)O)cc1)C[C@H]2NC(=O)C1(c2ccc(C(F)(F)F)cc2)CC1` [Example 5, 4-[(2R,4R)-7-methoxy-4-({1-[4-(trifluoromethyl)phenyl]cyclopropane-1-carbonyl}amino)-3,4-dihydro-2H-1-benzopyran-2-yl]benzoic acid], a half-maximal effect (EC50) was put at 210 nM and the Maximum % activity was determined as 120.0%.
In the same order, the values of `COc1ccc2c(c1)O[C@@H](c1ccc(C(=O)O)cc1)C[C@H]2NC(=O)C1(c2ccc(C)cc2)CC1` [Example 6, 4-[(2R,4R)-7-methoxy-4-{[1-(4-methylphenyl)cyclopropane-1-carbonyl]amino}-3,4-dihydro-2H-1-benzopyran-2-yl]benzoic acid] are 90 nM and 95.9%.
`COc1ccc2c(c1)O[C@@H](c1ccc(C(=O)O)cc1)C[C@H]2NC(=O)C1(C)CCc2cc(C)ccc21` (stereo partly drawn) [Example 7, 4-{(2R,4R)-4-[(1,5-dimethyl-2,3-dihydro-1H-indene-1-carbonyl)amino]-7-methoxy-3,4-dihydro-2H-1-benzopyran-2-yl}benzoic acid]: the response was half-maximal at 160 nM (EC50) and the Maximum % activity is given as 90.1%.
The like results for `CCOC(=O)[C@H]1CC[C@H]([C@H]2C[C@@H](NC(=O)C3(c4ccc5c(c4)OC(F)(F)O5)CC3)c3ccc(OC)cc3O2)CC1` [Example 10, ethyl trans-4-[(2R,4R)-4-{[1-(2,2-difluoro-2H-1,3-benzodioxol-5-yl)cyclopropane-1-carbonyl]amino}-7-methoxy-3,4-dihydro-2H-1-benzopyran-2-yl]cyclohexane-1-carboxylate] were, in that order, 290 nM and 119.0%.
Regarding `CCOC(=O)[C@H]1CC[C@H]([C@H]2C[C@@H](NC(=O)C3(c4ccc5c(c4)OC(F)(F)O5)CC3)c3ccc(OC(F)(F)F)cc3O2)CC1` [Example 12, ethyl trans-4-[(2R,4R)-4-{[1-(2,2-difluoro-2H-1,3-benzodioxol-5-yl)cyclopropane-1-carbonyl]amino}-7-(trifluoromethoxy)-3,4-dihydro-2H-1-benzopyran-2-yl]cyclohexane-1-carboxylate], the response was half-maximal at 70 nM (EC50) and the Maximum % activity is listed as 135.0%.
The like results for `COc1ccc2c(c1)OC(c1ccc(OC)c(OC)c1)CC2NC(=O)C1(c2ccccc2)CC(F)(F)C1` (stereo not drawn) [Example 16, N-[2-(3,4-dimethoxyphenyl)-7-methoxy-3,4-dihydro-2H-1-benzopyran-4-yl]-3,3-difluoro-1-phenylcyclobutane-1-carboxamide] were, in that order, over 20000 nM and 4.0%.
In the same order, the values of `COc1ccc2c(c1)OC(c1ccc(OC)c(OC)c1)CC2NC(=O)C1(c2ccc(F)c(F)c2)CCC1` (stereo not drawn) [Example 17, 1-(3,4-difluorophenyl)-N-[2-(3,4-dimethoxyphenyl)-7-methoxy-3,4-dihydro-2H-1-benzopyran-4-yl]cyclobutane-1-carboxamide] are 3320 nM and 27.6%.

What is called EC50 is the concentration at which the effect is half-maximal. The low end stands for higher potency in that assay, the high end for lower potency in that assay.
